# Measured values published in patent US6583333B1, “Lymphoma-susceptible transgenic mice and methods for studying drug sensitivity of lymphomas” (Cold Spring Harbor Laboratory, priority 1998, dated 2003).
# How the values were obtained:
# [1] = test system: transplanted Eμ-myc lymphoma cells in C57BL/6 mice; assay: Tumor transplantation into syngeneic mice, response to treatment by palpation; type: in vivo, mouse; conditions: 10^6 cells by tail vein into C57BL/6, 10 mg/kg, compared with primary tumors, FIG. 5
# From the text: Upon discovery of tumors in a Eμ-myc transgenic mouse, lymphoma cells were harvested, and 10^6 cells were immediately transplanted into multiple C57BL/6 mice (Taconic Laboratories) by tail vein injection. Tumors were allowed to form (usually in about two weeks). Treatment with adriamycin was given as in Example 5. […] The results (as assessed by palpation for tumors) plotted in FIG. 5 are from 22 mice with primary tumors, and 10 mice with transplanted tumors.
# [2] = test system: secondary tumors arising from transplanted L885 cells; assay: Drug sensitivity of transplanted tumor cell line L885, by palpation; type: in vivo, mouse; conditions: 10 mg/kg, 9 secondary tumors vs 22 primary tumors, FIG. 11
# Description: (§1) Eμ-myc lymphomas were cultured using feeder layers (see Example 7). Several of these cell lines were transplanted into syngeneic C57BL/6 recipients by injection of 10^6 cells into the tail vein. Tumor-bearing animals were assessed for response to 10 mg/kg adriamycin therapy, by palpation for tumors.
# [3] = test system: L700 cell line derived from an Eμ-myc (p53^+) tumor; assay: Detection of caspase activation (biotin-YVAD-amk labelling, blot); type: cell-based, mouse; conditions: 0.1 μg/ml, 0, 3, 6 or 9 hours, FIG. 10
# Description: Procedures were as published in Faleiro, L., et al., EMBO J. 16:2271-2281, 1997). Isolated L700 cells growing in culture dishes were treated with 0.1 μg/ml adriamycin. After 0, 3, 6 or 9 hours, cell lysates were made in the presence of 10 μM biotin-YVAD-amk to label caspases, and the protein concentrations were determined. Protein samples were run on a 15% acrylamide-0.1% SDS gel. Proteins were transferred from the gel to Immobilon P membrane (Millipore). Membranes were washed in methanol and air dried. Dried, baked membranes were incubated in biotinylated horseradish peroxidase at 25 ng/ml. Labeled proteins were visualized with ECL reagent (Amersham).
# [4] = test system: Eμ-myc lymphomas from p53^+/− mice; assay: Effect of p53 defect on therapy in Eμ-myc/p53^+/− mice; type: in vivo, mouse; conditions: 10 Eμ-myc/p53^+/− mice, 10 mg/kg, FIG. 14
# Description: Since most Eμ-myc lymphomas from p53^+/− mice lose the wild-type p53 allele, it was possible to study the response of essentially p53-deficient tumors in mice that were otherwise hemizygous for p53 and not prone to thymic lymphoma (see strategy in FIG. 13). […] The response of Eμ-myc lymphomas with p53 defects to 10 mg/kg adriamycin therapy resembled that of Eμ-myc/p53^+/+ lymphomas following their second relapse (See FIG. 4).
# [5] = test system: Eμ-myc lymphoma cell line L1025; assay: In vitro sensitivity of lymphoma cell lines, viability by trypan blue exclusion; type: cell-based, mouse; conditions: line L1025 from a resistant tumor, 24-hour treatment, FIG. 8
# Description: Several lymphoma lines have been isolated from Eμ-myc mice in which the response to adriamycin of the original tumor was known. Eμ-myc lymphoma cell lines cultured in vitro were tested for their sensitivity to adriamycin. Lymphocytes were counted. The cells were spun down and resuspended in pre-conditioned B cell media (media that has been on feeder cells for 24 hours) at a concentration of 2×10^6 cells/ml. 10^6 cells were seeded per well of a tissue culture plate, in 0.5 ml. Adriamycin was suspended in pre-conditioned B cell media at twice the final concentration. Final concentrations of adriamycin were 0.25, 0.05, 0.075, 0.1, 0.5 and 1.0 μg/ml. 0.5 of medium was added to each well, to a final volume of 1 ml. Cells were incubated for 24 hours at 37° C. Cells were transferred from the wells to Eppendorf tubes on ice, and centrifuged at 2500 rpm for 5 minutes at 4° C. The medium was poured off the cell pellets, leaving about 200 μl of medium in each tube. One drop of trypan blue dye was added to each tube, and a total of 200 cells per sample were counted under a microscope. Live cells exclude trypan blue and appear white; dead cells take up trypan blue and appear blue.
# L877 has been tested as Eμ-myc/p53^−/−; the other cell lines are derived from Eμ-myc/p53^+ mice and are presumably p53^+/+.
# [6] = test system: Eμ-myc/p53^−/− lymphoma; assay: White blood cell counts of lymphoma-associated leukemia after treatment; type: in vivo; conditions: Eμ-myc/p53^−/− mouse, 10 mg/kg, 0-24 hours after treatment, FIG. 6, one mouse
# Description: Eμ-myc/p53^+ mice (C57BL/6) and Eμ-myc/p53^−/− (C57BL/6 x 129; p53^−/LOH in FIGS. 6 and 7) with leukemia associated with primary lymphoma, were treated with either adriamycin at 10 mg/kg of body weight or with 6 Gy of whole body gamma-irradiation. Blood samples were taken and white blood cells were counted in a hemocytometer at 0, 4, 8, 12 and 24 hours after treatment. […] The data plotted in FIGS. 6 and 7 are from one treated mouse of each genotype.
# [7] = test system: primary myc-induced lymphomas in Eμ-myc transgenic mice; assay: Response to therapy of primary myc-induced lymphomas (remission/relapse by palpation and blood smears); type: in vivo, mouse; conditions: single treatment 10 mg/kg intraperitoneal, FIG. 4
# Description: Eμ-myc transgenic mice were treated with 10 mg/kg body weight adriamycin (maximum tolerated dose) by intraperitoneal injection using adriamycin freshly resuspended in water to a final concentration of 1 mg/ml. Treated mice were monitored for remission and for relapse by palpation and by blood smears to obtain white blood cell counts.
# Palpation is performed by gently feeling the mouse for bumps under the skin, which are enlarged lymph nodes.
# Blood smears are done by collecting blood from the tail artery, and examining a dried droplet of blood which has been smeared on a glass microscope slide to be one cell layer thick at the edge. The blood smear is stained after drying, using LEUKOSTAT™ stain (Fisher Diagnostics cat. # CS43A-C). The blood smear can be mounted with Permount™ histological mounting medium (Fisher Scientific). Slides are viewed under 40X or oil emersion. Blood from mice affected by lymphoma are always compared with blood from mice from a normal mouse drawn at the same time.
# The numbers of mice used to generate the data in FIG. 4 were 22 (first treatment), 14 (second treatment) and 5 (third treatment).
# [8] = test system: transplanted L1537 cells (homozygous for p53^−); assay: Drug sensitivity of transplanted tumor cell line L1537; type: in vivo, mouse; conditions: two C57BL/6 mice, 10 mg/kg
# Description: as §1
# Tumor cell line L1537 was derived from an Eμ-myc/p53^+/− lymphoma and was tested as homozygous for p53^−. Tumor cells were transplanted, by the method described above, into two C57BL/6 mice.
structure (smiles),measurement,setting,value
COc1cccc2c1C(=O)c1c(O)c3c(c(O)c1C2=O)C[C@@](O)(C(=O)CO)C[C@@H]3O[C@H]1C[C@H](N)[C@H](O)[C@H](C)O1 [adriamycin],response of transplanted (secondary) tumors to treatment,[1],A higher percentage of these secondary tumors failed to respond to treatment
same,response of transplanted L885 tumors to therapy,[2],"virtually indistinguishable from that seen in the primary, non-transplanted lymphomas"
same,caspase activation,[3],caspase activation following drug treatment
same,response to therapy (percentage of tumor-free mice),[4],almost completely refractory to therapy
same,sensitivity in cell culture (percent viable cells),[5],sensitive in cell culture
same,sensitivity of lymphoma-associated leukemia (white blood cell counts),[6],insensitive
same,response to therapy (time to relapse by palpation),[7],the vast majority of the mice respond to therapy
same,response of transplanted L1537 tumors to therapy,[8],Both mice failed to respond
